Assay results from patent publication US7456154B2 (priority 2001, dated 2008).
“And” between values parts separate entries of the source, which are not always exact repeats. Equal values may be shown once.

Tests used:
AChE-R = test: Immunoblot densitometry of serum AChE-R in EAMG rats; type: in vivo, rat; conditions: 24 h after single i.v. injection of 250 μg/Kg
Method: Serum analyses: Blood samples drawn from EAMG rats and MG patients were subjected to non-denaturing gel electrophoresis as described [Kaufer et al. (1998) id ibid], as well as to catalytic activity measurements of AChE [Shapira et al. (2000) id ibid]. Iso-OMPA (tetraisopropylpyrophosphoramide, […]), was used to block butyrylcholinesterase activity in the serum samples. For activity staining on polyacrylamide gels [Kaufer et al. (1998) id ibid] we used 5-10−6 M iso-OMPA.
To evaluate the physiological outcome of this suppression, compound muscle action potentials (CMAPs) from the gastrocnemius muscle were recorded. […] The baseline decline, the percent difference in the heights of the fifth and the first evoked potentials, ranged from 10% to 36% (mean±SEM=13.0±2.5%, FIG. 9B, inset) as compared to 4.0±0.9% among healthy rats. The standard therapy for MG patients is administration of anti-cholinesterases, which elevate ACh levels to a threshold that enables receptor activation. Accordingly, neostigmine bromide (Prostigmine™, 75 μg/kg) was administered via i.p. This rapidly and effectively corrected the CMAP decline in EAMG rats, from 87.6% of the first evoked potential in untreated animals to […] of this level (i.e. 107.4%) of the first evoked potential). […]

AChE-S = AChE-S expression in mandibular lymph nodes of Crl:CD rats; type: in vivo, rat; conditions: 0.50 μg/g/day, 7 days; rEN101 oral or i.v., hEN101 i.v.
EAMG rats = test: Treadmill running time and clinical status of EAMG rats; type: in vivo, rat; conditions: for Treadmill Performance Time: individual EAMG rat; for Clinical score: individual rat
AChE-R mRNA [1] = test: AChE-R mRNA in mandibular lymph nodes of Crl:CD rats; type: in vivo, rat; conditions: 0.50 μg/g/day, 7 days; rEN101 oral or i.v., hEN101 i.v.; vs saline
Method: A study of the potential efficacy as well as toxicity of hEN101 was conducted on 4 week-old Crl:CD rats. To groups of 12 animals (6 males, 6 females) were administered 0.0 (saline only), 0.50 or 2.50 μg/g/day of hEN101 by oral gavage (o.g.), 0.50 μg/g/day of rEN101 by o.g., or 0.50 μg/g/day of rEN101 or hEN101 by i.v. injection. Additionally, there was a control group that was not injected. For 7 days the animals were checked for gross signs of toxicity: mortality, body weight, food consumption, ophtalmology, hematology (peripheral blood), and blood chemistry. At 7 days they were sacrificed and examined post mortem for macroscopic pathology and organ weight. Fixed sections of brain (cerebellum, cerebrum, midbrain, medulla), heart (auricular and ventricular regions), kidneys (cortex, medulla, papilla regions), liver (all main lobes), lungs (two major lobes, including bronchi), lymph nodes (mandibular and mesenteric), spinal cord (transverse and longitudinal sections at cervical, lumbar and thoracic levels), caecum, colon, duodenum, ileum, jejunum, esophagus, rectum, spleen and stomach (keratinized, glandular and antrum) were stained with hematoxylin/eosin to reveal necrosis or cell death.
Mandibular lymph nodes were examined for the effect of EN101 on AChE-R mRNA. […]

AChE = test: Plasma cholinesterase activities in monkeys (Ellman assay, acetylthiocholine hydrolysis); type: in vivo, Cynomolgus monkey
Method: In the 12 hr following the second day administration of hEN101, monkey plasma samples were collected and stored. Plasma cholinesterase activities were measured by spectrophotometry assessing the rate of hydrolysis of acetylthiocholine (measured by the Ellman assay, which quantifies the hydrolysis of acetylthiocholine) [Ellman, G. L., et al. (1961). Biochem. Pharmacol. 7, 88-95], in the absence or presence of iso-OMPA (a selective butyrylcholinesterase, BChE, inhibitor). […] When measured in the presence of 1×10^−5M iso-OMPA, AChE activity increased within the 5 hr post-injection.

AChE-R mRNA [2] = test: In situ hybridization of AChE-R mRNA in monkey spinal cord neurons; type: in vivo, Cynomolgus monkey
Method: In situ hybridization: Tissues were fixed in 4% paraformaldehyde and cut into 7 μm paraffin embedded sections. Spinal cord sections were deparaffinized, rehydrated using serial ethanol dilutions and permeabilized with proteinase K (10 μg/ml at room temp.). Slides were exposed to 5′ biotinylated, fully 2′-oxymethylated AChE-R or AChE-S-specific 50-mer cRNA probes complementary to human ACHE pseudo-intron 4 or exon 6, respectively [Grisaru et al. (2001) id ibid.]. Hybridization was performed overnight at 52° C. in hybridization mixture containing 10 μg/ml probe, 50 μg/ml yeast tRNA, 50 μg/ml heparin and 50% formamide in 375 mM Na chloride, 37.5 mM Na citrate, pH 4.5. For monkey sections, the probe was constructed according to the human AChE-R sequence; for rat sections, according to the mouse sequence. Slides were washed to remove non-hybridized probe, blocked with 1% skim milk containing 0.01% Tween-20 and 2 mM levamisole, an alkaline phosphatase inhibitor used to suppress non-specific staining and incubate with streptavidin-alkaline phosphatase (Amersham Pharmacia). Fast Red™ substrate (Roche Diagnostics) was used for detection. DAPI staining (Sigma Chemical Co., St. Louis, Mo., USA) served to visualize nuclei. Microscope images were analyzed with Image Pro Plus 4.0 (Media Cybernetics) software.
This experiment was conducted with six (3 males and 3 females) purpose-bred 15 month-old (young adult) Cynomolgus monkeys, divided in three groups (1, 2 and 3) of one male and one female each. Groups 1 and 2 received hEN101 daily by o.g. for a period of 7 days, at a concentration of 0.15 and 0.50 μg/g/day, respectively. Group 3 received daily i.v. injections of hEN101 for a period of 7 days at a dosage of 0.50 μg/g/day.
Paraffin-embedded 7 μm spinal cord sections were examined by in situ hybridization for the levels of AChE-R and AChE-S mRNA.
AChE-R-positive sections from monkey spinal cords were analyzed for the relation between cell body diameter and percentage of AChE-R positive cells (FIG. 15). Cells were divided into three categories according to their body diameter, and the percentage of AChE-R-positive cells from each category was evaluated. […] Either i.v. or p.o. administration of the higher EN101 concentration (500 μg/kg/day) reduced the percentage of AChE-R-positive neurons, compared to the lower concentration (p<0.05. Student's t test). […] We have yet to discover the functional correlate of cell size that determines the efficacy of antisense suppression of AChE-R expression.

For “5′-CTGCGATATTTTCTTGTACC-3′ (chemistry not given here) [rEN101]”, the “Serum AChE-R level” value (AChE-R) was “reducing its serum level”, the “Expression of AChE-S synaptic variant in mandibular lymph nodes” value (AChE-S) was “did not affect the expression” and the “Treadmill running time after treatment” value (EAMG rats; EAMG disease grade 2, 250 μg/Kg i.v., 24 h) was 488 ± 58 s. For the same substance, the “Treadmill running time before treatment” value (EAMG rats; EAMG disease grade 2, 25 m/min) was 247 ± 35 s, the “Treadmill running time after treatment” value (EAMG rats; EAMG disease grade 3, 250 μg/Kg i.v., 24 h) was 500 ± 193 s and the “Treadmill running time before treatment” value (EAMG rats; EAMG disease grade 3, 25 m/min) was 179 ± 21 s. For the same substance, the “Treadmill running time after treatment” value (EAMG rats; EAMG disease grade 4, 250 μg/Kg i.v., 24 h) was 212 ± 59 s, the “Treadmill running time before treatment” value (EAMG rats; EAMG disease grade 4, 25 m/min) was 32 ± 6 s and the “AChE-R mRNA levels in mandibular lymph nodes” value (AChE-R mRNA [1]) was “inconsistent in depressing AChE-R mRNA levels”.

5′-CTGCCACGTTCTCCTGCACC-3′ [hEN101] was tested, and the “Expression of AChE-S synaptic variant in mandibular lymph nodes” value (AChE-S) was “did not affect the expression”, the “Effect on muscle stamina in EAMG rats” value (EAMG rats; 0.25 μg/g oral single dose) was “promoted muscle stamina” and the “Treadmill Performance Time” value (EAMG rats; 5 h, 0.25 μg/g oral single dose) was 300 s and 120 s and 150 s and 70 s. For the same substance, the “Treadmill Performance Time” value (EAMG rats; 24 h, 0.25 μg/g oral single dose) was 345 s and 170 s and 380 s and 360 s and 30 s, the Clinical score (EAMG rats; 24 h, scale 0 to 5 (death), 0.25 μg/g oral single dose) was “(1) (3×) and (2) and |||| (3) and (3)” and the “Treadmill Performance Time” value (EAMG rats; 48 h, 0.25 μg/g oral single dose) was 85 s and 290 s. The Clinical score (EAMG rats; 48 h, scale 0 to 5 (death), 0.25 μg/g oral single dose) was 2.5 and 2 and || (5), the “Treadmill Performance Time” value (EAMG rats; before (basal), 0.25 μg/g oral single dose) was 210 s and 80 s and 180 s and 30 s and 110 s and 0 s and the Clinical score (EAMG rats; before (basal), scale 0 (no weakness) to 5 (death)) was “(2.5) (2×) and 3 and (3.5) and (3) and 3.5”. For the same substance, the “Total plasma cholinesterase activity (largely serum BChE)” value (AChE; 12 hr following second day administration, without iso-OMPA) was “generally unchanged”, the “Post-injection increase of plasma AChE activity” value (AChE; in presence of 1×10^−5M iso-OMPA, 500 μg/kg vs 150 μg/kg, more effective i.v.) was “effectively suppressed or attenuated” and the “Percent of small AChE-R-positive cells (<70 μm diameter) vs naive monkeys” value (AChE-R mRNA [2]; 150 μg/kg/day) was “caused an increase”. For the same substance, the “Effect on AChE-R labeling of larger neurons (>70 μm)” value (AChE-R mRNA [2]; 150-500 μg/kg/day) was “not discernable effect”, the “AChE-R mRNA in spinal cord” value (AChE-R mRNA [2]; increasing daily dose from 0.15 (oral) to 0.50 (oral or i.v.) μg/g/day, i.v. more effective) was “significant reduction” and the “Percentage of labeled small (23 to 40 μm) and medium-sized (40 to 70 μm) neurons” value (AChE-R mRNA [2]; lower to higher oral dose (150 to 500 μg/kg/day), even further with i.v.) was “decreased significantly”. For the same substance, the “AChE-R mRNA levels in mandibular lymph nodes” value (AChE-R mRNA [1]) was “inconsistent in depressing AChE-R mRNA levels”.
